Source: patent US9708331B2, “Metabotrophic glutamate receptor 5 modulators and methods of use thereof” (SUNOVION PHARMACEUTICALS INC., priority 2011, dated 2017)

Columns and labels:
[1] = biological target: T1, mGluR5 (Homo sapiens, UniProt P41594); experiment: mGluR5 fold shift at a fixed compound concentration; assay type: cell-based
[2] = biological target: T1, mGluR5; experiment: mGluR5 PAM EC50 (positive allosteric modulator potency); assay type: cell-based

T1 sequence (P41594 21-1212): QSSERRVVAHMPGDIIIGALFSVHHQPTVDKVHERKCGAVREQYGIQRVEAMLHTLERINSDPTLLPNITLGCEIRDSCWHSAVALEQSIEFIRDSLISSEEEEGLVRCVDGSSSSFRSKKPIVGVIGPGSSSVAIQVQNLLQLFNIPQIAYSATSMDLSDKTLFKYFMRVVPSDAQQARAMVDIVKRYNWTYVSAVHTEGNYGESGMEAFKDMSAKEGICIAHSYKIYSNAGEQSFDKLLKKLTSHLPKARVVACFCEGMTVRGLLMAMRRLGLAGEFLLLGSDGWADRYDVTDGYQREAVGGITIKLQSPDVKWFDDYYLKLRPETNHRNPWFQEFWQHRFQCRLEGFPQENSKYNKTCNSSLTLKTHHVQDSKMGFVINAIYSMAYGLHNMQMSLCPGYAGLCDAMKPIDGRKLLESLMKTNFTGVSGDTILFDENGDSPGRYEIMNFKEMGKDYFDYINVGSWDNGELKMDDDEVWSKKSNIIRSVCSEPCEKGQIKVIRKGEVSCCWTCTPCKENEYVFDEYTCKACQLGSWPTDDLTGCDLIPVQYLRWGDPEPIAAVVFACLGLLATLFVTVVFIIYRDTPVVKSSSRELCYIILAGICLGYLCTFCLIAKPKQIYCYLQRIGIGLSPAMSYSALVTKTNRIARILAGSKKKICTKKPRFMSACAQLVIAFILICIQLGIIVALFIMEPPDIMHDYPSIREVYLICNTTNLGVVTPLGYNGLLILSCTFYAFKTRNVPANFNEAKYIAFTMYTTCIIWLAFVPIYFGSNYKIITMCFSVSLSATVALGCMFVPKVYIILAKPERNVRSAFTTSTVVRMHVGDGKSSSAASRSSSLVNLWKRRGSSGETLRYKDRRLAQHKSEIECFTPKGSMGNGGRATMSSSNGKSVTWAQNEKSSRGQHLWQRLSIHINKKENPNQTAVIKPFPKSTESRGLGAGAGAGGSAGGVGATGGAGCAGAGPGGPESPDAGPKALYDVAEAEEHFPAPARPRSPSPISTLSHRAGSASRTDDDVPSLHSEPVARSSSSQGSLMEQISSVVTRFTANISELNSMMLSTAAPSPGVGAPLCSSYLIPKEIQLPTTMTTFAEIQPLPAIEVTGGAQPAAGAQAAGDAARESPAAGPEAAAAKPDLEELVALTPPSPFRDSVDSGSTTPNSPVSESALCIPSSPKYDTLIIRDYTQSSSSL

SMILES | Fold shift at 1 μM [1] | EC50 [2] [nM] | Fold shift at 10 μM [1]
COc1cccc(C#Cc2ccc3c(=O)n4c(nc3c2)CCC(C)(C)C4)n1 [Example 2.101, 3-((6-methoxypyridin-2-yl)ethynyl)-8,8-dimethyl-8,9-dihydro-6H-pyrido[2,1-b]quinazolin-11(7H)-one] | ++ (++ is between 2.0 and 2.9) | 30 to 100 | –
COc1ccnc(C#Cc2ccc3c(=O)n4c(nc3c2)CCC(C)(C)C4)c1 [Example 2.102, 3-((4-methoxypyridin-2-yl)ethynyl)-8,8-dimethyl-8,9-dihydro-6H-pyrido[2,1-b]quinazolin-11(7H)-one] | + (+ is between 1.5 and 1.9) | 30 to 100 | –
CC1(C)CCc2nc3cc(C#Cc4ccc(Cl)cn4)ccc3c(=O)n2C1 [Example 2.42, 3-((5-chloropyridin-2-yl)ethynyl)-8,8-dimethyl-8,9-dihydro-6H-pyrido[2,1-b]quinazolin-11(7H)-one] | +++ (+++>3) | < 10 | –
COC1(C)CCc2nc3cc(C#Cc4ccccn4)ccc3c(=O)n2CC1 (single isomer, unassigned) [Example 3.4a] | – | 30 to 100 | +++ (+++>3)
CC1(C)COc2nc3cc(C#Cc4ccccn4)ccc3c(=O)n2C1 [Example 2.29, 3,3-dimethyl-9-(pyridin-2-ylethynyl)-3,4-dihydro-[1,3]oxazino[2,3-b]quinazolin-6(2H)-one] | +++ (+++>3) | 10 to 30 | –
O=c1c2ccc(C#Cc3ccccn3)cc2nc2n1CCC(F)(F)CC2 [Example 3.15, 8,8-difluoro-3-(pyridin-2-ylethynyl)-7,8,9,10-tetrahydroazepino[2,1-b]quinazolin-12(6H)-one] | – | 10 to 30 | +++ (+++>3)
CC1(C)CCn2c(nc3cc(C(=O)Nc4ccccn4)ccc3c2=O)C1 [Example 4.11, 7,7-dimethyl-11-oxo-N-(pyridin-2-yl)-7,8,9,11-tetrahydro-6H-pyrido[2,1-b]quinazoline-3-carboxamide] | + (+ is between 1.5 and 1.9) | 100 to 300 | –
CC1(C)CCc2nc3cc(C#Cc4ccccc4)ccc3c(=O)n2C1 [Example 2.37, 8,8-dimethyl-3-(phenylethynyl)-8,9-dihydro-6H-pyrido[2,1-b]quinazolin-11(7H)-one] | ++ (++ is between 2.0 and 2.9) | < 10 | –
COCC1(C)CCc2nc3cc(C#Cc4ccccn4)ccc3c(=O)n2C1 (stereo not drawn) [Example 2.97, 8-(methoxymethyl)-8-methyl-3-(pyridin-2-ylethynyl)-8,9-dihydro-6H-pyrido[2,1-b]quinazolin-11(7H)-one] | +++ (+++>3) | 10 to 30 | –
Cc1cccc(C#Cc2ccc3c(=O)n4c(nc3c2)CCC(C)(C)C4)n1 [Example 2.41, 8,8-dimethyl-3-((6-methylpyridin-2-yl)ethynyl)-8,9-dihydro-6H-pyrido[2,1-b]quinazolin-11(7H)-one] | +++ (+++>3) | 10 to 30 | –
O=c1c2ccc(C#Cc3ccccn3)cc2nc2n1CC1(CCC2)CC1(F)F (stereo not drawn) [Example 3.40, 2′,2′-difluoro-3-(pyridin-2-ylethynyl)-7,8-dihydro-6H-spiro[azepino[2,1-b]quinazoline-9,1′-cyclopropan]-12(10H)-one] | +++ (+++>3) | 10 to 30 | –
O=c1c2ccc(C#Cc3ccccn3)cc2nc2n1CC(C(F)(F)F)C2 (single isomer, unassigned) [Example 1.8b] | + (+ is between 1.5 and 1.9) | 30 to 100 | –
O=c1c2ccc(C#Cc3ccccn3)cc2nc2n1CC1(CC2)CC1(F)F (stereo not drawn) [Example 2.68, 2,2-difluoro-3′-(pyridin-2-ylethynyl)-6′,7′-dihydrospiro[cyclopropane-1,8′-pyrido[2,1-b]quinazolin]-11′(9′H)-one] | +++ (+++>3) | < 10 | –
CC1Cc2nc3cc(C#Cc4ccccn4)ccc3c(=O)n2CCC1(F)F (single isomer, unassigned) [Example 3.30c] | – | 10 to 30 | +++ (+++>3)
O=c1c2ccc(C#Cc3ccccn3)cc2nc2n1CCC1CC21 (single isomer, unassigned) [Example 2.10a] | ++ (++ is between 2.0 and 2.9) | 30 to 100 | –
COC1(C)CCc2nc3cc(C#Cc4ccccn4)ccc3c(=O)n2C1 (single isomer, unassigned) [Example 2.8b] | +++ (+++>3) | 30 to 100 | –
CCC1(C)Cc2nc3cc(C#Cc4ccccn4)ccc3c(=O)n2C1 (stereo not drawn) [Example 1.10, 2-ethyl-2-methyl-6-(pyridin-2-ylethynyl)-2,3-dihydropyrrolo[2,1-b]quinazolin-9(1H)-one] | +++ (+++>3) | 10 to 30 | –
COC(C)(C)C1Cc2nc3cc(C#Cc4ccccn4)ccc3c(=O)n2C1 (stereo not drawn) [Example 1.4, 2-(2-methoxypropan-2-yl)-6-(pyridin-2-ylethynyl)-2,3-dihydropyrrolo[2,1-b]quinazolin-9(1H)-one] | +++ (+++>3) | 10 to 30 | –
Cc1ncc(C#Cc2ccc3c(=O)n4c(nc3c2)CCC(C)(C)C4)s1 [Example 2.49, 8,8-dimethyl-3-((2-methylthiazol-5-yl)ethynyl)-8,9-dihydro-6H-pyrido[2,1-b]quinazolin-11(7H)-one] | ++ (++ is between 2.0 and 2.9) | < 10 | –
COC1(C)CCc2nc3cc(C#Cc4ccccn4)ccc3c(=O)n2C1 (single isomer, unassigned) [Example 2.8a] | – | 100 to 300 | ++ (++ is between 2.0 and 2.9)
O=c1c2ccc(C#Cc3ccccn3)cc2nc2n1CC1(CC2)COC1 [Example 2.58, 3′-(pyridin-2-ylethynyl)-6′,7′-dihydrospiro[oxetane-3,8′-pyrido[2,1-b]quinazolin]-11′(9′H)-one] | +++ (+++>3) | 10 to 30 | –
